Assay results published in patent publication US5502035A, “N-terminus modified analogs of LHRH” (Tap Holdings Inc., priority 1994, dated 1996).
Non-standard residues stand in square brackets, D forms with d. Residues, ends and D or L forms follow the SMILES beside them. *: point of attachment. Shikimoyl = O=C(C1=C[C@@H](O)[C@@H](O)[C@H](O)C1)*; dPhe(4-Cl) = N[C@H](Cc1ccc(Cl)cc1)C(=O)O; d2Nal = N[C@H](Cc1ccc2ccccc2c1)C(=O)O; Lys(iPr) = CC(C)NCCCC[C@H](N)C(=O)O; NMeY = CN[C@@H](Cc1ccc(O)cc1)C(=O)O; d3Pal = N[C@H](Cc1cccnc1)C(=O)O; Nicotinoyl = O=C(c1cccnc1)*; Picolinoyl = O=C(c1ccccn1)*; 2Furoyl = O=C(c1ccco1)*; X6 = O=C(c1ccoc1)*

Molecular target: T1, LHRH (Rattus norvegicus, UniProt P30969)
T1 construct: endogenous in cells; host or cells: rat pituitary cells (own knowledge of the cited Haviv 1989 method)
T1 sequence (P30969 1-327): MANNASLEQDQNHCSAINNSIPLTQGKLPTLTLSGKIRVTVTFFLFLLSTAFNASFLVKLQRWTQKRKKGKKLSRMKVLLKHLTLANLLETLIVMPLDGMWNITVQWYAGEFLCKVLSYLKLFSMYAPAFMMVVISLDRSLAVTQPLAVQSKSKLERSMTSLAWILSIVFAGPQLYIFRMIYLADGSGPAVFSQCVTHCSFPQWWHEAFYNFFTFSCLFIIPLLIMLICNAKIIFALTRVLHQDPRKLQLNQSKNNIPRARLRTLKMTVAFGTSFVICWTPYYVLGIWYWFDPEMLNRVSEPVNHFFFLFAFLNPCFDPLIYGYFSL
Experiment: in vitro test for LHRH antagonist potency (pA2)
Type: cell-based
Conditions: negative logarithm of the antagonist concentration required to shift the response curve produced by the agonist leuprolide to two-fold higher concentration
Procedure: Representative compounds of the present invention were evaluated in an in vitro test for LHRH antagonist potency (pA2). The test employed the method detailed in F. Haviv, et al. J. Med. Chem., 32:2340-2344 (1989). The values of pA2 are the negative logarithms of the concentration of the particular antagonist test compound required to shift the response curve produced by the agonist leuprolide to two-fold higher concentration. (Leuprolide is the LHRH agonist having the structure 5-oxo-Pro^1 -His^2 -Trp^3 -Ser^4 -Tyr^5 -D-Leu^6 -Leu^7 -Arg^8 -Pro^9 -NHEt and is disclosed and claimed in U.S. Pat. No. 4,005,063.) Typically pA2 values of 9.5 or greater are indicative of good LHRH antagonist potency, with values of 10.0 or greater being preferred.

Row | Structure (SMILES) | Kb
1 | CC(C)C[C@H](NC(=O)[C@@H](CCCCNC(=O)c1cccnc1)NC(=O)[C@H](Cc1ccc(O)cc1)N(C)C(=O)[C@H](CO)NC(=O)[C@@H](Cc1cccnc1)NC(=O)[C@@H](Cc1ccc(Cl)cc1)NC(=O)[C@@H](Cc1ccc2ccccc2c1)NC(=O)CNC(=O)C1CCCO1)C(=O)N[C@@H](CCCCNC(C)C)C(=O)N1CCC[C@H]1C(=O)N[C@H](C)C(N)=O (mixture of isomers) [Example 3, N-(R,S)-Tetrahydrofur-2-oyl-Gly-D2Nal-D4ClPhe-D3Pal-Ser-NMeTyr-DLys(Nicotinyl) -Leu-Lys(N-epsilon-Isopropyl)-Pro-DAlaNH2] | 0.0158 nM
2 | CC(C)C[C@H](NC(=O)[C@@H](CCCCNC(=O)NNC(=O)c1cccnc1)NC(=O)[C@H](Cc1ccc(O)cc1)N(C)C(=O)[C@H](CO)NC(=O)[C@@H](Cc1cccnc1)NC(=O)[C@@H](Cc1ccc(Cl)cc1)NC(=O)[C@@H](Cc1ccc2ccccc2c1)NC(=O)CNC(=O)C1CCCO1)C(=O)N[C@@H](CCCCNC(C)C)C(=O)N1CCC[C@H]1C(=O)N[C@H](C)C(N)=O (mixture of isomers) [Example 11, N-(R,S)Tetrahydrofur-2-oyl-Gly-D2Nal-D4ClPhe-D3Pal-Ser-NMeTyr-DLys(Azagly-Nicotinyl) -Leu-Lys(N-epsilon-Isopropyl)-Pro-DAlaNH2] | 0.038 nM
3 | CC(C)C[C@H](NC(=O)[C@@H](CCCCNC(=O)CNC(=O)c1cccnc1)NC(=O)[C@H](Cc1ccc(O)cc1)N(C)C(=O)[C@H](CO)NC(=O)[C@@H](Cc1cccnc1)NC(=O)[C@@H](Cc1ccc(Cl)cc1)NC(=O)[C@@H](Cc1ccc2ccccc2c1)NC(=O)CNC(=O)C1CCCO1)C(=O)N[C@@H](CCCNC(=N)N)C(=O)N1CCC[C@H]1C(=O)N[C@H](C)C(N)=O (mixture of isomers) [Example 27b, N-(R,S)-Tetrahydrofur-2oyl-Gly-D2Nal-D4ClPhe-D3Pal-Ser-NMeTyr-DLys(Gly-Nic)-Leu-Arg-Pro-DAlaNH 2] | 0.0135 nM
4 | CC(C)C[C@H](NC(=O)[C@@H](CCCCNC(=O)NNC(=O)c1ccco1)NC(=O)[C@H](Cc1ccc(O)cc1)N(C)C(=O)[C@H](CO)NC(=O)[C@@H](Cc1cccnc1)NC(=O)[C@@H](Cc1ccc(Cl)cc1)NC(=O)[C@@H](Cc1ccc2ccccc2c1)NC(=O)CNC(=O)C1CCCO1)C(=O)N[C@@H](CCCCNC(C)C)C(=O)N1CCC[C@H]1C(=O)N[C@H](C)C(N)=O (mixture of isomers) [Example 30a, N-(R,S)-Tetrahydrofur-2-oyl-Gly-D2Nal-D4ClPhe-D3Pal-Ser-NMeTyr-DLys(Azagly-2Fur)-Leu-Lys(Isp)-Pro-DAlaNH2] | 0.0479 nM
5 | CC(C)C[C@H](NC(=O)[C@@H](CCCCNC(=O)c1cccnc1)NC(=O)[C@H](Cc1ccc(O)cc1)N(C)C(=O)[C@H](CO)NC(=O)[C@@H](Cc1cccnc1)NC(=O)[C@@H](Cc1ccc(Cl)cc1)NC(=O)[C@@H](Cc1ccc2ccccc2c1)NC(=O)CNC(=O)C1CCCO1)C(=O)N[C@@H](CCCCNC(C)C)C(=O)N1CCC[C@H]1C(=O)N(C)CC(N)=O (mixture of isomers) [Example 38, N-(R,S)-Tetrahydrofur-2-oyl-Gly-D2Nal-D4ClPhe-D3Pal-Ser-NMeTyr-DLys(Nicotinyl)-Leu-Lys(Isp)-Pro-SarNH2] | 0.0309 nM
6 | CC(C)C[C@H](NC(=O)[C@@H](CCCCNC(=O)c1cccnc1)NC(=O)[C@H](Cc1ccc(O)cc1)NC(=O)[C@H](CO)NC(=O)[C@@H](Cc1cccnc1)NC(=O)[C@@H](Cc1ccc(Cl)cc1)NC(=O)[C@@H](Cc1ccc2ccccc2c1)NC(=O)CNC(=O)C1CCCO1)C(=O)N[C@@H](CCCCNC(C)C)C(=O)N1CCC[C@H]1C(=O)N[C@H](C)C(N)=O (mixture of isomers) [Example 91, N (R,S)-2-Tetrahydrofuroyl-Gly-D2Nal-D4ClPhe-D3Pal-Ser-Tyr-DLys(N-epsilon-Nicotinyl) -Leu-Lys(N-epsilon-Isopropyl)-Pro-DAlaNH2] | 0.00219 nM
7 | CC(=O)N[C@H](Cc1ccc(O)cc1)C(=O)N[C@H](Cc1ccc2ccccc2c1)C(=O)N[C@H](Cc1ccc(Cl)cc1)C(=O)N[C@H](Cc1cccnc1)C(=O)N[C@@H](CO)C(=O)N(C)[C@@H](Cc1ccc(O)cc1)C(=O)N[C@H](CCCCNC(=O)c1cccnc1)C(=O)N[C@@H](CC(C)C)C(=O)N[C@@H](CCCCNC(C)C)C(=O)N1CCC[C@H]1C(=O)N[C@H](C)C(N)=O [Example 1, N-Ac-DTyr-D2Nal-D4ClPhe-D3Pal-Ser-NMeTyr-DLys(Nicotinyl)-Leu-Lys(N-epsilon- Isopropyl) -Pro-DAlaNH2] (Ac-[dY][d2Nal][dPhe(4-Cl)][d3Pal]S[NMeY][dK](Nicotinoyl)L[Lys(iPr)]P[dA]-NH2) | 0.0178 nM
8 | CC(C)C[C@H](NC(=O)[C@@H](CCCCNC(=O)c1cccnc1)NC(=O)[C@H](Cc1ccc(O)cc1)N(C)C(=O)[C@H](CO)NC(=O)[C@@H](Cc1cccnc1)NC(=O)[C@@H](Cc1ccc(Cl)cc1)NC(=O)[C@@H](Cc1ccc2ccccc2c1)NC(=O)CNC(=O)C1=C[C@@H](O)[C@@H](O)[C@H](O)C1)C(=O)N[C@@H](CCCCNC(C)C)C(=O)N1CCC[C@H]1C(=O)N[C@H](C)C(N)=O [Example 2a, N-Shikimyl-Gly-D2Nal-D4ClPhe-D3Pal-Ser-NMeTyr-DLys(N-epsilon-Nicotinyl) -Leu-Lys(N-epsilon-Isopropyl)-Pro-DAlaNH2] (Shikimoyl-G[d2Nal][dPhe(4-Cl)][d3Pal]S[NMeY][dK](Nicotinoyl)L[Lys(iPr)]P[dA]-NH2) | 0.0282 nM
9 | CC(C)C[C@H](NC(=O)[C@@H](CCCCNC(=O)c1cccnc1)NC(=O)[C@H](Cc1ccc(O)cc1)N(C)C(=O)[C@H](CO)NC(=O)[C@@H](Cc1cccnc1)NC(=O)[C@@H](Cc1ccc(Cl)cc1)NC(=O)[C@@H](Cc1ccc2ccccc2c1)NC(=O)CNC(=O)c1ccco1)C(=O)N[C@@H](CCCCNC(C)C)C(=O)N1CCC[C@H]1C(=O)N[C@H](C)C(N)=O [Example 2c, N-2-Furoyl-Gly-D2Nal-D4ClPhe-D3Pal-Ser-NMeTyr-DLys(N-epsilon-Nicotinyl) -Leu-Lys(N-epsilon-Isopropyl)-Pro-DAlaNH2] (2Furoyl-G[d2Nal][dPhe(4-Cl)][d3Pal]S[NMeY][dK](Nicotinoyl)L[Lys(iPr)]P[dA]-NH2) | 0.00794 nM
10 | CC(C)C[C@H](NC(=O)[C@@H](CCCCNC(=O)c1cccnc1)NC(=O)[C@H](Cc1ccc(O)cc1)N(C)C(=O)[C@H](CO)NC(=O)[C@@H](Cc1cccnc1)NC(=O)[C@@H](Cc1ccc(Cl)cc1)NC(=O)[C@@H](Cc1ccc2ccccc2c1)NC(=O)CNC(=O)c1ccoc1)C(=O)N[C@@H](CCCCNC(C)C)C(=O)N1CCC[C@H]1C(=O)N[C@H](C)C(N)=O [Example 2d, N-3Furoyl-Gly-D2Nal-D4ClPhe-D3Pal-Ser-NMeTyr-DLys(N-epsilon-Nicotinyl) -Leu-Lys(N-epsilon-Isopropyl)-Pro-DAlaNH2] (X6-G[d2Nal][dPhe(4-Cl)][d3Pal]S[NMeY][dK](Nicotinoyl)L[Lys(iPr)]P[dA]-NH2) | 0.0126 nM
11 | CC(C)C[C@H](NC(=O)[C@@H](CCCCNC(=O)c1cccnc1)NC(=O)[C@H](Cc1ccc(O)cc1)N(C)C(=O)[C@H](CO)NC(=O)[C@@H](Cc1cccnc1)NC(=O)[C@@H](Cc1ccc(Cl)cc1)NC(=O)[C@@H](Cc1ccc2ccccc2c1)NC(=O)CNC(=O)c1ccccn1)C(=O)N[C@@H](CCCCNC(C)C)C(=O)N1CCC[C@H]1C(=O)N[C@H](C)C(N)=O [Example 2e, N-Picolyl-Gly-D2Nal-D4ClPhe-D3Pal-Ser-NMeTyr-DLys(N-epsilon-Nicotinyl) -Leu-Lys(N-epsilon-Isopropyl)-Pro-DAlaNH2] (Picolinoyl-G[d2Nal][dPhe(4-Cl)][d3Pal]S[NMeY][dK](Nicotinoyl)L[Lys(iPr)]P[dA]-NH2; N-terminus assumed) | 0.02 nM
